{
  "source": "patent US10093654B2",
  "about": "“Therapeutically active compounds and their methods of use” (Agios Pharmaceuticals, Inc., priority 2013, dated 2018)",
  "key": {"[1]": {"test_system": "Caco-2 cells", "assay": "Caco-2 cell assay", "format": "in vitro ADME"}, "[2]": {"test_system": "IDH2 R140Q", "assay": "Phase 1 clinical study, inhibition of circulating plasma 2-HG, IDH2 R140Q patients", "format": "in vivo, human"}, "[3]": {"biological_target": "T1, UGT1A1 (Homo sapiens, UniProt P22309)", "T1 sequence (P22309 26-533)": "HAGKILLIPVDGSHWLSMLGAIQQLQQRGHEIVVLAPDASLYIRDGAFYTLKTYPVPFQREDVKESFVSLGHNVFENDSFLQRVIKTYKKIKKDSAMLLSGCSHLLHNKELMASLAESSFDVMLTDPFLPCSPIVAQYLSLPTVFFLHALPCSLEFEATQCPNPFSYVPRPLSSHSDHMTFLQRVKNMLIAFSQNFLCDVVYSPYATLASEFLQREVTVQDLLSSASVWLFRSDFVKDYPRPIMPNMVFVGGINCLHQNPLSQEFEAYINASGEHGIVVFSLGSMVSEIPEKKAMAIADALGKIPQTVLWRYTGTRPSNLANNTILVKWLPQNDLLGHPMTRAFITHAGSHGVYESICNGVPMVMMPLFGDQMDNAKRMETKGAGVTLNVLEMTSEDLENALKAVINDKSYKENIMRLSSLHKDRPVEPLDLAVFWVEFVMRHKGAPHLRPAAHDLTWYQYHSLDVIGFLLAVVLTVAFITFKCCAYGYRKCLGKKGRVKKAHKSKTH", "assay": "UGT1A1 inhibition by genotype", "format": "in vitro ADME", "procedure": "Its inhibition of the UGT1A1 *1/*28 and *28/*28 Gilbert's syndrome genotypes are evaluated."}, "[4]": {"test_system": "CYP2B6", "assay": "CYP2B6 induction", "format": "in vitro ADME, human"}, "[5]": {"biological_target": "CYP2C9 (Homo sapiens, UniProt P11712)", "sequence (P11712 whole entry)": "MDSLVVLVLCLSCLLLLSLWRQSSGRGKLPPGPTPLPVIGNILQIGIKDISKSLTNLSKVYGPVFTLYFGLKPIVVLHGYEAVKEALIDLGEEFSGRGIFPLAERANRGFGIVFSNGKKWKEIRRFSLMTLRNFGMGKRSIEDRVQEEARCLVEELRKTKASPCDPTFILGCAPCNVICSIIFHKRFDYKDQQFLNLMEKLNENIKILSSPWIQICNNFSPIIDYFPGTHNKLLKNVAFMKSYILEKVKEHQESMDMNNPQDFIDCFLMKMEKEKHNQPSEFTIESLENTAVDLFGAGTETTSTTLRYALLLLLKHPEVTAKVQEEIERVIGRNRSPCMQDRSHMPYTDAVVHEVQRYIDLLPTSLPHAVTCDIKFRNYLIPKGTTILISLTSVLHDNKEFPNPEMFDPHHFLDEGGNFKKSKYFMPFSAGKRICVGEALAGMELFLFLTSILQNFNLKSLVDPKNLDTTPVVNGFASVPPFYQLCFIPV", "assay": "Direct inhibition of CYP2C9", "format": "in vitro ADME"}, "[6]": {"test_system": "AMM7577-P2 (HuKemia® model)", "assay": "Survival in mutant positive AML mouse model", "conditions": "Day 48-84"}},
  "data": [
    {"substance": "2-Methyl-1-[(4-[6-(trifluoromethyl)pyridin-2-yl]-6-{[2-(trifluoromethyl)pyridin-4-yl]amino}-1,3,5-triazin-2-yl)amino]propan-2-ol methanesulfonate [compound 1]", "values": [
      {"measurement": "permeability Papp", "setting": "[1]", "value": "> 17.9", "unit": "×10⁻⁶ cm/s"},
      {"measurement": "substrate for human P-gp or BCRP in vitro", "setting": "[1]", "value": "does not appear to be a substrate"},
      {"measurement": "mean inhibition of 2HG, no adjustment for subjects without IDH-2 mutated disease", "setting": "[2]; C1D15 and C2D1, 18 patients with IDH2 R140Q mutations", "value": "up to 97%"},
      {"measurement": "mean inhibition of 2-HG (adjusted)", "setting": "[2]; Cohort 1 of Table 7 (30 mg twice daily), C1D15, 4 patients", "value": 88, "unit": "%"},
      {"measurement": "mean inhibition of 2-HG (adjusted)", "setting": "[2]; Cohort 2 of Table 4 (50 mg twice daily), C1D15, 2 patients", "value": 98, "unit": "%"},
      {"measurement": "mean inhibition of 2-HG (adjusted)", "setting": "[2]; cohort 1 of Table 4 (30 mg twice daily), C1D15, 3 patients", "value": 86, "unit": "%"},
      {"measurement": "mean inhibition of 2-HG (adjusted)", "setting": "[2]; cohort 1 of Table 4 (30 mg twice daily), C2D1, 1 patient", "value": 95, "unit": "%"},
      {"measurement": "mean inhibition of 2-HG (adjusted)", "setting": "[2]; cohort 1 of Table 7 (30 mg twice daily), C2D1, 2 patients", "value": 97, "unit": "%"},
      {"measurement": "mean inhibition of 2-HG (adjusted)", "setting": "[2]; cohort 2 of Table 4 (50 mg twice daily), C2D1, 4 patients", "value": 100, "unit": "%"},
      {"measurement": "mean inhibition of 2-HG (adjusted)", "setting": "[2]; cohort 2 of Table 7 (50 mg twice daily), C1D15, 3 patients", "value": 99, "unit": "%"},
      {"measurement": "mean inhibition of 2-HG (adjusted)", "setting": "[2]; cohort 2 of Table 7 (50 mg twice daily), C2D1, 4 patients", "value": 100, "unit": "%"},
      {"measurement": "mean inhibition of 2-HG (adjusted)", "setting": "[2]; cohort 3 of Table 7 (75 mg twice daily), C1D15, 3 patients", "value": 103, "unit": "%"},
      {"measurement": "mean inhibition of 2-HG (adjusted)", "setting": "[2]; cohort 3 of Table 7 (75 mg twice daily), C2D1, 3 patients", "value": 81, "unit": "%"},
      {"measurement": "mean inhibition of 2-HG (adjusted)", "setting": "[2]; cohort 4 of Table 7 (100 mg once daily), C1D15, 3 patients", "value": 102, "unit": "%"},
      {"measurement": "mean inhibition of 2-HG (adjusted)", "setting": "[2]; cohort 4 of Table 7 (100 mg once daily), C2D1, 2 patients", "value": 101, "unit": "%"},
      {"measurement": "IC50", "setting": "[3]; *1/*1 genotype", "value": 1.9, "unit": "µM"},
      {"measurement": "IC50", "setting": "[3]; *1/*28 genotype", "value": 3.5, "unit": "µM"},
      {"measurement": "IC50", "setting": "[3]; *28/*28 genotype", "value": 10, "unit": "µM"},
      {"measurement": "induction of CYP2B6", "setting": "[4]", "value": "not observed"},
      {"measurement": "IC50", "setting": "[5]", "value": 3.7, "unit": "µM"},
      {"measurement": "Survival at study termination", "setting": "[6]; 5 mg/kg PO/BID", "value": "4/9"},
      {"measurement": "Survival at study termination", "setting": "[6]; 15 mg/kg PO/BID", "value": "6/9"},
      {"measurement": "Survival at study termination", "setting": "[6]; 45 mg/kg PO/BID", "value": "9/9"}
    ]}
  ]
}
